Results on one compound are retold here after US20160312315A1, “Methods and Compositions for Determining Virus Susceptibility to Integrase Inhibitors” (Laboratory Corporation of America Holdings, priority 2011, published 2016).

Common to all, as to assay type: cell-based, HIV-1
Assay [1] deals with other Y143X (Y143H/C/S/G) site directed mutant viruses. Briefly: PhenoSense raltegravir susceptibility assay, site directed mutant viruses. The note with it: other Y143X substitutions alone, SDM viruses vs NL4-3. The procedure: (§1) Raltegravir susceptibility tests performed with resistance test vectors were carried out using packaging host and target host cells consisting of the human embryonic kidney cell line 293. Susceptibility tests were carried out with the RTV libraries by using viral particles comprising the RTV libraries to infect a host cell in which the expression of the indicator gene is measured. The amount of indicator gene (luciferase) activity detected in infected cells is used as a direct measure of “infectivity,” i.e., the ability of the virus to complete a single round of replication. Thus, drug susceptibility can be determined by plotting the amount of luciferase activity produced by patient derived viruses in the presence of varying concentrations of the antiviral drug. By identifying the concentration of drug at which luciferase activity is half-maximum, the IC50 of the virus from which patient-derived segment(s) were obtained for the antiretroviral agent can be determined. The IC50 provides a direct measure of the susceptibility of the HIV infecting the patient to raltegravir.
(§2) In the susceptibility tests, packaging host (293) cells were seeded in 10-cm-diameter dishes and were transfected one day after plating with test vector plasmid DNA and the envelope expression vector. Transfections were performed using a calcium-phosphate co-precipitation procedure. The cell culture media containing the DNA precipitate was replaced with fresh medium, from one to 24 hours, after transfection. […] Alternatively, cells were lysed, and luciferase was measured by adding Steady-Glo (Promega Corp.; Madison, Wis.) reagent directly to each well without aspirating the culture media from the well. […]
(§3) Site directed mutant (SDM) viruses were created that had only the specific integrase mutation listed on the x-axis of FIG. 8A, 8B, or 8C. FIGS. 8A, 8B, and 8C are graphs showing the fold change (FC) in raltegravir susceptibility of the SDM viruses, as compared to the raltegravir susceptibility of an NL4-3 virus and determined by the PhenoSense assay. […]

The test system of assay [2] is Y143R plus T97A site directed mutant virus. The description is as above. The note with it: SDM virus vs NL4-3. Here is the method: as §1, §2, §3
For assay [3], the system named is Y143R site directed mutant virus. The assay is described as above. The note with it: Y143R mutation alone, SDM virus vs NL4-3. Here is the method: as §1, §2, §3
Assay [4] deals with Y143C/G/S plus S230R site directed mutant viruses. Described as above. The note with it: SDM viruses vs NL4-3. Here is the method: (§4) Raltegravir susceptibility tests performed with resistance test vectors were carried out using packaging host and target host cells consisting of the human embryonic kidney cell line 293. Susceptibility tests were carried out with the RTV libraries by using viral particles comprising the RTV libraries to infect a host cell in which the expression of the indicator gene is measured. The amount of indicator gene (luciferase) activity detected in infected cells is used as a direct measure of “infectivity,” i.e., the ability of the virus to complete a single round of replication. Thus, drug susceptibility can be determined by plotting the amount of luciferase activity produced by patient derived viruses in the presence of varying concentrations of the antiviral drug. By identifying the concentration of drug at which luciferase activity is half-maximum, the IC50 of the virus from which patient-derived segment(s) were obtained for the antiretroviral agent can be determined. […]
(§5) In the susceptibility tests, packaging host (293) cells were seeded in 10-cm-diameter dishes and were transfected one day after plating with test vector plasmid DNA and the envelope expression vector. […] Alternatively, cells were lysed, and luciferase was measured by adding Steady-Glo (Promega Corp.; Madison, Wis.) reagent directly to each well without aspirating the culture media from the well. […]

The test system of assay [5] is Y143R plus S230R site directed mutant virus. The description is as above. The note with it: SDM virus, compared with Y143R alone. Here is the method:
as §4, §5

In assay [6] the test system is other Y143X plus T97A site directed mutant viruses. Here is the method:
as §4, §5

SMILES strings stand for the structures.

As to `Cc1nnc(C(=O)NC(C)(C)c2nc(C(=O)NCc3ccc(F)cc3)c(O)c(=O)n2C)o1` [raltegravir], the “fold change in IC50 (FC), reduction in RAL susceptibility” value is 3-6 in assay [1]; 70 in assay [2]; 20 in assay [3]; 15-24 in assay [4]; 7-16 in assay [6]. Moreover, in assay [5], the “further reduction in RAL susceptibility on addition of S230R” value is “did not”.
